Results: ChEMBL document CHEMBL5154647, “Discovery of seneciobipyrrolidine derivatives for the amelioration of glucose homeostasis disorders through 4E-BP1/Akt/AMPK signaling activation” (Eur J Med Chem, 2022)
Blank lines part the entries; values can stand above or below the compound they belong to. The source made the active and inactive calls. No cut-off for these calls is given here.

Experiments:
L6 [1] = assay: Induction of glucose uptake in rat L6 myoblasts at 20 uM measured after 2 hrs by liquid scintillation counter; format: functional
L6 [2] = assay: Induction of glucose uptake in rat L6 myoblasts assessed as 2-DG concentration at 25 uM preincubated for 3 hrs and in presence of 2-deoxyglucose measured after 1 hrs by DNTB reagent based colorimetric assay; format: functional; conditions: time 4 hrs
[3] = Microsomal stability in mouse liver microsomes assessed as half life preincubated with NADPH measured upto 60 mins by LC-MS analysis; format: ADME, Microsome
[4] = Microsomal stability in monkey liver microsomes assessed as half life preincubated with NADPH measured upto 60 mins by LC-MS analysis; format: ADME, Macaca mulatta, Microsome; conditions: rhesus monkey
[5] = target: Eukaryotic translation initiation factor 4E-binding protein 1 (Rattus norvegicus) (UniProt Q62622); assay: Activation of 4E-BP1 in rat L6 myoblasts assessed as increase in 4E-BP1 protein level at 25 uM measured after 30 mins by western blot analysis; format: cell-based; conditions: filed as activator
Chain of Eukaryotic translation initiation factor 4E-binding protein 1 (Rattus norvegicus) (Q62622 whole entry): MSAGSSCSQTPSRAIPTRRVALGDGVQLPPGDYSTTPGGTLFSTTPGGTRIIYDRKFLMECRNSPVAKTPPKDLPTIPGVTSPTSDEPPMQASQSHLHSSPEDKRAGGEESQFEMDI

[6] = Toxicity in db/db mouse assessed as reduction in triglyceride at 100 mg/kg, po administered for 21 days; format: organism-based; conditions: in vivo, 504 h, time 21 day
[7] = Half life in Sprague-Dawley rat at 20 mg/kg, po measured upto 10 hrs by LC/MS/MS analysis; format: ADME, organism-based; conditions: in vivo
Mus musculus [8] = assay: Antidiabetic activity in db/db mouse assessed as reduction in fasting blood glucose level at 100 mg/kg, po bid measured up to 21 days; format: functional; design: scale not given: the % may be the effect or the level left; conditions: time <= 21 day
Liver = assay: Effect on 4E-BP1 in db/db mouse liver assessed as increase in 4E-BP1 protein level at 100 mg/kg, po bid administered for 21 days by immunohistochemical staining analysis; format: functional, organism-based; conditions: time 21.0 day
[9] = target: T1, AMP-activated protein kinase, AMPK (Rattus norvegicus) (UniProt P54645+Q09137+P80386+P80385+Q9QZH4+Q6V7V4+D4A7E4); assay: Time dependent activation of AMPK in rat L6 myoblasts assessed as increase in AMPK phosphorylation at Thr172 at 10 to 180 min by western blot analysis; format: cell-based; conditions: filed as activator, time 10-180 min, TDE = time-dependent effect
[10] = target: Eukaryotic translation initiation factor 4E-binding protein 1 (Rattus norvegicus) (UniProt Q62622); assay: Time dependent activation of 4E-BP1 in rat L6 myoblasts assessed as increase in 4E-BP1 protein level at 10 to 180 min by western blot analysis; format: cell-based; conditions: filed as activator, time 10-180 min, TDE = time-dependent effect
[11] = Cmax in Sprague-Dawley rat at 5 mg/kg, iv measured upto 24 hrs by LC/MS/MS analysis; format: ADME, organism-based; design: dose 5 mg/kg, time < 24 hrs, route iv; conditions: in vivo
[12] = Oral bioavailability in Sprague-Dawley rat at 20 mg/kg measured upto 10 hrs by LC/MS/MS analysis; format: ADME, organism-based; conditions: in vivo
[13] = Toxicity in db/db mouse assessed as reduction in triglyceride at 75 mg/kg, po administered for 21 days; format: organism-based; conditions: in vivo, 504 h, time 21 day
Mus musculus [14] = assay: Antidiabetic activity in db/db mouse assessed as reduction in blood glucose level at 100 mg/kg, po bid measured after 6 hrs; format: functional; design: scale not given: the % may be the effect or the level left
Mus musculus [15] = assay: Antidiabetic activity in db/db mouse assessed as reduction in random blood glucose level at 100 mg/kg, po bid measured up to 21 days; format: functional; design: scale not given: the % may be the effect or the level left; conditions: time <= 21 day
L6 [16] = assay: Activation of Akt in rat L6 myoblasts assessed as increase in AKT phosphorylation at Ser473 at 25 uM measured after 30 mins by western blot analysis; format: cell-based; conditions: filed as activator
[17] = Tmax in Sprague-Dawley rat at 20 mg/kg, po measured upto 10 hrs by LC/MS/MS analysis; format: ADME, organism-based; conditions: in vivo
L6 [18] = assay: Activation of Akt in rat L6 myoblasts assessed as increase in Akt protein level at 25 uM measured after 30 mins by western blot analysis; format: cell-based; conditions: filed as activator
Mus musculus [19] = assay: Improvement in glucose tolerance in db/db mouse assessed as reduction in blood glucose level at 100 mg/kg, po measured after 20 days; format: functional, organism-based; conditions: time 20.0 day
Mus musculus [20] = assay: Antidiabetic activity in db/db mouse assessed as reduction in fasting blood glucose level at 75 mg/kg, po bid measured up to 21 days; format: functional; design: scale not given: the % may be the effect or the level left; conditions: time <= 21 day
[21] = target: Eukaryotic translation initiation factor 4E-binding protein 1 (Rattus norvegicus) (UniProt Q62622); assay: Activation of 4E-BP1 in rat L6 myoblasts assessed as increase in 4E-BP1 protein level at 0.1 to 25 uM by western blot analysis; format: cell-based; conditions: filed as activator, dose 0.1-25 µM, DDE = dose-dependent effect
[22] = Cmax in Sprague-Dawley rat at 20 mg/kg, po measured upto 10 hrs by LC/MS/MS analysis; format: ADME, organism-based; design: time < 10 hrs, dose 20 mg/kg, route po; conditions: in vivo
[23] = target: T1, AMP-activated protein kinase, AMPK (Rattus norvegicus); assay: Activation of AMPK in rat L6 myoblasts assessed as increase in AMPK phosphorylation at Thr172 at 0.1 to 25 uM by western blot analysis; format: cell-based; conditions: filed as activator, dose 0.1-25 µM, DDE = dose-dependent effect
[24] = Toxicity in db/db mouse liver assessed as reduction of fat accumulation in liver at 100 mg/kg, po bid administered for 21 days by H and E staining based microscopic analysis; format: organism-based; conditions: in vivo, 504 h, time 21 day
Mus musculus [25] = assay: Antidiabetic activity in db/db mouse assessed as reduction in random blood glucose level at 75 mg/kg, po bid measured up to 21 days; format: functional; design: scale not given: the % may be the effect or the level left; conditions: time <= 21 day
[26] = Toxicity in db/db mouse assessed as increase in body weight at 75 mg/kg, po administered for 21 days; format: organism-based; conditions: in vivo, 504 h, time 21 day
L6 [27] = assay: Time dependent activation of Akt in rat L6 myoblasts assessed as increase in AKT phosphorylation at Ser473 at 10 to 180 min by western blot analysis; format: cell-based; conditions: filed as activator, time 10-180 min, TDE = time-dependent effect
[28] = Toxicity in db/db mouse assessed as effect on muscle tissue morphology at 100 mg/kg, po bid administered for 21 days by H and E staining based microscopic analysis; format: organism-based; conditions: in vivo, 504 h, time 21 day
[29] = AUC (0 to t) in Sprague-Dawley rat at 5 mg/kg, iv measured upto 24 hrs by LC/MS/MS analysis; format: ADME, organism-based; design: dose 5 mg/kg, time < 24 hrs, route iv; conditions: in vivo
Muscle tissue = assay: Effect on 4E-BP1 in db/db mouse muscle tissue assessed as increase in 4E-BP1 protein level at 100 mg/kg, po bid administered for 21 days by immunohistochemical staining analysis; format: functional, organism-based; conditions: time 21.0 day
Mus musculus [30] = assay: Improvement in glucose tolerance in db/db mouse assessed as reduction in blood glucose level at 300 mg/kg, po measured after 20 days; format: functional, organism-based; conditions: time 20.0 day
[31] = AUC (0 to t) in Sprague-Dawley rat at 20 mg/kg, po measured upto 10 hrs by LC/MS/MS analysis; format: ADME, organism-based; design: time < 10 hrs, dose 20 mg/kg, route po; conditions: in vivo
L6 [32] = assay: Induction of glucose uptake in rat L6 myoblasts preincubated for 3 hrs with compound and in presence of 2-deoxyglucose measured after 1 hrs by DNTB reagent based colorimetric assay; format: functional, cell-based
[33] = target: T1, AMP-activated protein kinase, AMPK (Rattus norvegicus); assay: Activation of AMPK in rat L6 myoblasts assessed as increase in AMPK protein level at 25 uM measured after 30 mins by western blot analysis; format: cell-based; conditions: filed as activator
[34] = Toxicity in db/db mouse assessed as reduction in total cholesterol at 75 to 100 mg/kg, po administered for 21 days; format: organism-based; conditions: in vivo, 504 h, dose 75-100 mg/kg, time 21 day
[35] = Toxicity in db/db mouse assessed as effect on pancreas morphology at 100 mg/kg, po bid administered for 21 days by H and E staining based microscopic analysis; format: organism-based; conditions: in vivo, 504 h, time 21 day
[36] = target: T1, AMP-activated protein kinase, AMPK (Rattus norvegicus); assay: Activation of AMPK in rat L6 myoblasts assessed as increase in AMPK phosphorylation at Thr172 at 25 uM measured after 30 mins by western blot analysis; format: cell-based; conditions: filed as activator
[37] = Toxicity in db/db mouse assessed as decrease in body weight at 100 mg/kg, po administered for 21 days; format: organism-based; conditions: in vivo, 504 h, time 21 day
Pancreas = assay: Effect on 4E-BP1 in db/db mouse pancreas assessed as increase in 4E-BP1 protein level at 100 mg/kg, po bid administered for 21 days by immunohistochemical staining analysis; format: functional, organism-based; conditions: time 21.0 day
L6 [38] = assay: Activation of Akt in rat L6 myoblasts assessed as increase in AKT phosphorylation at Ser473 at 0.1 to 25 uM by western blot analysis; format: cell-based; conditions: filed as activator, dose 0.1-25 µM, DDE = dose-dependent effect
[39] = Half life in Sprague-Dawley rat at 5 mg/kg, iv measured upto 24 hrs by LC/MS/MS analysis; format: ADME, organism-based; conditions: in vivo

Structure (SMILES): COc1ccc2c(c1)[C@H]1[C@H](CCN1Cc1ccc(C)cc1)CN2C (racemic)
Activity (L6 [1]): 80.6%

Structure (SMILES): Cc1ccc(CN2CC[C@@H]3[C@H]4CCCN4c4ccc(C)cc4[C@@H]32)cc1 (racemic)
Activity (L6 [1]): 149.2%
Activity (L6 [2]): 59.6 pmol/µL

half-life [3]: 3.12 h
half-life [4]: 0.578 h
Structure (SMILES): NC(=O)Cc1ccc(N2CC[C@@H]3[C@H]4CCCN4c4ccc(CC(N)=O)cc4[C@@H]32)cc1 (racemic)

Structure (SMILES): COc1ccc(N2CC[C@@H]3[C@@H]4CCCN4c4ccc(OC)cc4[C@@H]32)cc1 (racemic)
Activity (L6 [1]): 46.2%

Structure (SMILES): COc1ccc2c(c1)[C@H]1[C@H](CCN1C(=O)Cc1ccc(Cl)cc1)[C@H]1CCCN21 (racemic)
Activity (L6 [1]): 98.1%
Activity (L6 [2]): 33.1 pmol/µL

Structure (SMILES): COc1ccccc1N1CC[C@@H]2[C@H]3CCCN3c3c(OC)cccc3[C@@H]21 (racemic)
Activity (L6 [1]): 109.5%

Structure (SMILES): COc1ccc2c(c1)[C@H]1[C@H](CCN1Cc1ccccc1)[C@H]1CCCN21 (racemic)
Activity (L6 [1]): 66.4%
Activity (L6 [2]): 51.6 pmol/µL

Structure (SMILES): COc1ccc(N2CC[C@@H]3[C@@H]4CCCN4c4cc(O)c(OC)cc4[C@@H]32)cc1O (racemic)
Activity (L6 [1]): 70.6%

Structure (SMILES): Cc1ccc(N2CC[C@@H]3[C@@H]4CCCN4c4ccc(C)cc4[C@@H]32)cc1 (racemic)
Activity (L6 [1]): 63.5%

Structure (SMILES): Cc1ccc(N2CC[C@@H]3[C@H]4CCCN4c4ccc(C)cc4[C@@H]32)cc1 (racemic)
Activity (L6 [1]): 130.9%
Activity (L6 [2]): 13.1 pmol/µL

Structure (SMILES): Cc1ccc(CN2CC[C@@H]3[C@H]4CCCN4c4ccccc4[C@@H]32)cc1 (racemic)
Activity (L6 [1]): 155.4%

Structure (SMILES): COc1cc2c(cc1OC)N1CCC[C@@H]1[C@H]1CCN(Cc3ccc(C)cc3)[C@@H]21 (racemic)
Activity (L6 [1]): 34.2%

fold change (FC) [5]: 2
half-life [7]: 12.4 h
Activity [9]: Tde
Activity [10]: Tde
Cmax [11]: 0.542 µg/mL
bioavailability [12]: 19.9%
Tmax [17]: 0.5 h
Activity [21]: Dde
Cmax [22]: 0.141 µg/mL
Activity [23]: Dde
AUC(0-t) at 24 h [29]: 0.589 µg·h/mL
AUC(0-t) at 10 h [31]: 0.469 µg·h/mL
Activity [33]: Active
Activity [36]: Active
half-life [39]: 3.9 h
Structure (SMILES): COc1ccc2c(c1)[C@H]1[C@H](CCN1CCc1ccc(Cl)cc1)[C@H]1CCCN21 (racemic)
Activity [6]: Toxic
Activity (Mus musculus [8]): 62.1%
Activity (Liver): Active
Activity [13]: Toxic
Activity (Mus musculus [14]): 38.1%
Activity (Mus musculus [15]): 79%
Activity (L6 [16]): Active
Activity (L6 [18]): Active
Activity (Mus musculus [19]): Active
Activity (Mus musculus [20]): 65.5%
Activity [24]: Toxic
Activity (Mus musculus [25]): 77.2%
Activity [26]: Non-Toxic
Activity (L6 [1]): 215.6%
Activity (L6 [27]): Tde
Activity [28]: Non-Toxic
Activity (Muscle tissue): Active
Activity (Mus musculus [30]): Active
EC50 (L6 [32]): 2.7 µM
Activity (L6 [2]): 81.9 pmol/µL
Activity [34]: Toxic
Activity [35]: Non-Toxic
Activity [37]: Toxic
Activity (Pancreas): Active
Activity (L6 [38]): Dde

Structure (SMILES): COc1ccc2c(c1)[C@H]1[C@H](CCN1Cc1ccc(Cl)cc1)[C@H]1CCCN21 (racemic)
Activity (L6 [1]): 22.3%
